According to EP0137689B1, “GRF analogs” (THE SALK INSTITUTE FOR BIOLOGICAL STUDIES, priority 1983, dated 1986):

System: cells of rat pituitary glands
Assay: in vitro growth hormone release assay in rat pituitary cell cultures (ir GH measured by radioimmunoassay)
Format: cell-based
Settings: for intrinsic biological activity / potency: in equimolar ratios, side-by-side comparison with synthetic hGRF(1-44)-NH2, incubation 3 to 4 hours, GH release; for intrinsic activity / specific activity: multiple doses factorial design experiments; for intrinsic activity: compared with hGRF(1-44)-NH2; for specific activity: relative to hGRF(1-44)-NH2
Protocol: To determine the effectiveness of the peptide to promote the release of growth hormone, in vitro assays are carried out using synthetic hGRF(1-44)-NH2 in side-by-side comparison with pGRF(1-44)-NH2 and of a GRF Reference Standard having a known effectiveness to promote the release of growth hormone from pituitary cells. The GRF Reference standard is described and defined in Brazeau, et al., Endocrinology, Vol. 110 A538 (1982) and is an amount of a preparation of rat hypothalamic origin that produces a half- maximal response in terms of GH release in a pituitary cell monolayer bioassay. Cultures are used which include cells of rat pituitary glands removed some four to five days previously. Both cultures of a defined standard medium and cultures which are considered optimal for the secretion of growth hormone are used for the comparative testing, in the general manner described in Brazeau, et al. Regulatory Peptides, 1, 255, 1981. Incubation with the substance to be tested is carried out for 3 to 4 hours, and aliquots of the culture medium are removed and processed to measure their contents in inmunoreactive GH(ir GH) by a well- characterized radioimmunoassay.
To determine the effectiveness of the peptide to promote the release of growth hormone, in vito assays are carried out using synthetic hGRF(1―44)-NH2 in side-by-side comparison with equimolar concentrations of bGRF(1―44)-NH2, as set forth hereinbefore in Example II.
To determine the effectiveness of the peptide to promote the release of growth hormone, in vitro assays are carried out using synthetic hGRF(1―44)-NH2 in side-by-side comparison with equimolar concentrations of the synthetic oGRF(1-44)-NH2 of Example V as set forth hereinbefore in Example II.

Compound | intrinsic biological activity | potency | intrinsic activity | specific activity
CC[C@H](C)[C@H](NC(=O)[C@H](C)NC(=O)[C@H](CC(=O)O)NC(=O)[C@H](C)NC(=O)[C@@H](N)Cc1ccc(O)cc1)C(=O)N[C@@H](Cc1ccccc1)C(=O)N[C@H](C(=O)N[C@@H](CC(N)=O)C(=O)N[C@@H](CO)C(=O)N[C@@H](Cc1ccc(O)cc1)C(=O)N[C@@H](CCCNC(=N)N)C(=O)N[C@@H](CCCCN)C(=O)N[C@H](C(=O)N[C@@H](CC(C)C)C(=O)NCC(=O)N[C@@H](CCC(N)=O)C(=O)N[C@@H](CC(C)C)C(=O)N[C@@H](CO)C(=O)N[C@@H](C)C(=O)N[C@@H](CCCNC(=N)N)C(=O)N[C@@H](CCCCN)C(=O)N[C@@H](CC(C)C)C(=O)N[C@@H](CC(C)C)C(=O)N[C@@H](CCC(N)=O)C(=O)N[C@@H](CC(=O)O)C(=O)N[C@H](C(=O)N[C@@H](CCSC)C(=O)N[C@@H](CC(N)=O)C(=O)N[C@@H](CCCNC(=N)N)C(=O)N[C@@H](CCC(N)=O)C(=O)N[C@@H](CCC(N)=O)C(=O)NCC(=O)N[C@@H](CCC(=O)O)C(=O)N[C@@H](CCCNC(=N)N)C(=O)N[C@@H](CC(N)=O)C(=O)N[C@@H](CCC(N)=O)C(=O)N[C@@H](CCC(=O)O)C(=O)N[C@@H](CCC(N)=O)C(=O)NCC(=O)N[C@@H](C)C(=O)N[C@@H](CCCCN)C(=O)N[C@H](C(=O)N[C@@H](CCCNC(=N)N)C(=O)N[C@@H](CC(C)C)C(N)=O)C(C)C)[C@@H](C)CC)C(C)C)[C@@H](C)O [bGRF(1-44)-NH2] | full intrinsic biological activity | close to the same potency | same intrinsic activity | about 70 % of hGRF(1-44)-NH2
CC[C@H](C)[C@H](NC(=O)[C@H](C)NC(=O)[C@H](CC(=O)O)NC(=O)[C@H](C)NC(=O)[C@@H](N)Cc1ccc(O)cc1)C(=O)N[C@@H](Cc1ccccc1)C(=O)N[C@H](C(=O)N[C@@H](CC(N)=O)C(=O)N[C@@H](CO)C(=O)N[C@@H](Cc1ccc(O)cc1)C(=O)N[C@@H](CCCNC(=N)N)C(=O)N[C@@H](CCCCN)C(=O)N[C@H](C(=O)N[C@@H](CC(C)C)C(=O)NCC(=O)N[C@@H](CCC(N)=O)C(=O)N[C@@H](CC(C)C)C(=O)N[C@@H](CO)C(=O)N[C@@H](C)C(=O)N[C@@H](CCCNC(=N)N)C(=O)N[C@@H](CCCCN)C(=O)N[C@@H](CC(C)C)C(=O)N[C@@H](CC(C)C)C(=O)N[C@@H](CCC(N)=O)C(=O)N[C@@H](CC(=O)O)C(=O)N[C@H](C(=O)N[C@@H](CCSC)C(=O)N[C@@H](CC(N)=O)C(=O)N[C@@H](CCCNC(=N)N)C(=O)N[C@@H](CCC(N)=O)C(=O)N[C@@H](CCC(N)=O)C(=O)NCC(=O)N[C@@H](CCC(=O)O)C(=O)N[C@@H](CCCNC(=N)N)C(=O)N[C@@H](CC(N)=O)C(=O)N[C@@H](CCC(N)=O)C(=O)N[C@@H](CCC(=O)O)C(=O)N[C@@H](CCC(N)=O)C(=O)NCC(=O)N[C@@H](C)C(=O)N[C@@H](CCCCN)C(=O)N[C@H](C(=O)N[C@@H](CCCNC(=N)N)C(=O)N[C@@H](CC(C)C)C(N)=O)C(C)C)[C@@H](C)CC)[C@@H](C)CC)[C@@H](C)O [oGRF(1-44), H-Tyr-Ala-Asp-Ala-lle-Phe-Thr-Asn-Ser-Tyr-Arg-Lys-lle-Leu-Gly-Gln-Leu-Ser-Ala-Arg-Lys-Leu-Leu-Gln-Asp- lle-Met-Asn-Arg-Gln-Gln-Gly-Glu-Arg-Asn-Gln-Glu-Gln-Gly-Ala-Lys-Val-Arg-Leu-NH2] | full intrinsic biological activity | close to the same potency | about the same intrinsic activity | about 70 % of hGRF(1-44)-NH2
CC[C@H](C)[C@H](NC(=O)[C@H](C)NC(=O)[C@H](CC(=O)O)NC(=O)[C@H](C)NC(=O)[C@@H](N)Cc1ccc(O)cc1)C(=O)N[C@@H](Cc1ccccc1)C(=O)N[C@H](C(=O)N[C@@H](CC(N)=O)C(=O)N[C@@H](CO)C(=O)N[C@@H](Cc1ccc(O)cc1)C(=O)N[C@@H](CCCNC(=N)N)C(=O)N[C@@H](CCCCN)C(=O)N[C@H](C(=O)N[C@@H](CC(C)C)C(=O)NCC(=O)N[C@@H](CCC(N)=O)C(=O)N[C@@H](CC(C)C)C(=O)N[C@@H](CO)C(=O)N[C@@H](C)C(=O)N[C@@H](CCCNC(=N)N)C(=O)N[C@@H](CCCCN)C(=O)N[C@@H](CC(C)C)C(=O)N[C@@H](CC(C)C)C(=O)N[C@@H](CCC(N)=O)C(=O)N[C@@H](CC(=O)O)C(=O)N[C@H](C(=O)N[C@@H](CCSC)C(=O)N[C@@H](CO)C(=O)N[C@@H](CCCNC(=N)N)C(=O)N[C@@H](CCC(N)=O)C(=O)N[C@@H](CCC(N)=O)C(=O)NCC(=O)N[C@@H](CCC(=O)O)C(=O)N[C@@H](CCCNC(=N)N)C(=O)N[C@@H](CC(N)=O)C(=O)N[C@@H](CCC(N)=O)C(=O)N[C@@H](CCC(=O)O)C(=O)N[C@@H](CCC(N)=O)C(=O)NCC(=O)N[C@@H](C)C(=O)N[C@@H](CCCNC(=N)N)C(=O)N[C@H](C(=O)N[C@@H](CCCNC(=N)N)C(=O)N[C@@H](CC(C)C)C(N)=O)C(C)C)[C@@H](C)CC)C(C)C)[C@@H](C)O [pGRF(1-44)-NH2] | full intrinsic biological activity | close to the same potency |  | 
